In patent US10195185B2, “3-(1H-imidazo[4,5-C]pyridin-2-yl)-1H-pyrazolo[4,3-B]pyridines and therapeutic uses thereof” (Samumed, LLC, priority 2015, dated 2019):

Assays:
[1] = system: Primary human fibroblasts derived from IPF patients (LL29 cells) treated with TGF-β1; test: Inhibition of the fibrotic process: αSMA staining in TGF-β1 treated fibroblasts; type: cell-based; conditions: Fibroblast, 96 h, LL29 fibroblasts treated with TGF-β1, 4 days; for inhibition at 10 µM: read-out: percent inhibition in brackets beside EC50 >10 μM
Procedure, shortened: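 EC50 values come from non-linear fits of the αSMA-positive percentage among SYTOX-excluded live cells, normalized to TGF-β1 plus DMSO controls, or appear as % inhibition at 10 μM when above 10 μM. Fibrosis was induced in IPF-derived LL29 fibroblasts by 20 ng/mL TGF-β1 over 4 days, with 1:2 compound dilutions from 10 μM.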

[2] = system: IL-6 in human monocyte cell line (THP-1 cells); test: IL-6 inhibition in LPS-stimulated THP-1 cells (HTRF); type: cell-based; conditions: IL-6 in LPS-stimulated THP-1 cells; for EC50: HTRF; for inhibition at 10 µM: read-out: percent inhibition in brackets beside EC50 >10 μM
Procedure, shortened: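 Readout is the 665/620 nm HTRF ratio for secreted IL-6, normalized to DMSO wells, with EC50 from a variable-slope four-parameter fit, or % inhibition at 10 μM when above 10 μM. Cells (1% FBS, 24 h beforehand) got compound for 2 h, then LPS 500 ng/mL for 22 h at 37° C; top dose 10 μM, 0.1% DMSO.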

Row | SMILES | EC50 [1] [µM] | EC50 [2] [µM] | inhibition at 10 µM [2] [%] | inhibition at 10 µM [1] [%]
1 | COc1cccc(-c2nccc3[nH]c(-c4n[nH]c5ccc(-c6cncc(NC(=O)CC(C)(C)C)c6)nc45)nc23)c1 [Compound 1006, N-(5-(3-(4-(3-methoxyphenyl)-1H-imidazo[4,5-c]pyridin-2-yl)-1H-pyrazolo [4,3-b]pyridin-5-yl)pyridin-3-yl)-3,3-dimethylbutanamide] | 2.5 | > 10 | 32.3 | 
2 | Cc1ncc(-c2ccc3[nH]nc(-c4nc5c(-c6ccoc6)nccc5[nH]4)c3n2)n1C [Compound 685, 5-(1,2-Dimethyl-1H-imidazol-5-yl)-3-(4-(furan-3-yl)-1H-imidazo[4,5-c]pyridin-2-yl)-1H-pyrazolo[4,3-b]pyridine] | 5.3 | > 10 | 30.2 | 
3 | COc1cccc(-c2nccc3[nH]c(-c4n[nH]c5ccc(-c6cncc(O)c6)nc45)nc23)c1 [Compound 1030, 5-(3-(4-(3-Methoxyphenyl)-1H-imidazo[4,5-c]pyridin-2-yl)-1H-pyrazolo [4,3-b]pyridin-5-yl)pyridin-3-ol] | 9.7 | 0.493 |  | 
4 | COc1cncc(-c2ccc3[nH]nc(-c4nc5c(-c6ccoc6)nccc5[nH]4)c3n2)c1 [Compound 692, 3-(4-(Furan-3-yl)-1H-imidazo[4,5-c]pyridin-2-yl)-5-(5-methoxypyridin-3-yl)-1H-pyrazolo[4,3-b]pyridine] | 0.334 | > 10 | 44 | 
5 | CN(C)Cc1cncc(-c2ccc3[nH]nc(-c4nc5c(N6CCCCC6)nccc5[nH]4)c3n2)c1 [Compound 181, N,N-Dimethyl-1-(5-(3-(4-(piperidin-1-yl)-1H-imidazo[4,5-c]pyridin-2-yl)-1H-pyrazolo [4,3-b]pyridin-5-yl)pyridin-3-yl)methanamine] | 4.05 | > 10 | 36.5 | 
6 | Fc1ccccc1-c1nccc2[nH]c(-c3n[nH]c4ccc(-c5ccccn5)nc34)nc12 [Compound 84, 3-(4-(2-Fluorophenyl)-1H-imidazo[4,5-c]pyridin-2-yl)-5-(pyridin-2-yl)-1H-pyrazolo[4,3-b]pyridine] | > 10 | > 10 | 27.2 | 18.1
7 | O=C(Nc1cncc(-c2ccc3[nH]nc(-c4nc5cnccc5[nH]4)c3n2)c1)C1CCCCC1 [Compound 275, N-(5-(3-(1H-Imidazo[4,5-c]pyridin-2-yl)-1H-pyrazolo[4,3-b]pyridin-5-yl)pyridin-3-yl)cyclohexanecarboxamide] | > 10 | > 10 | 31.5 | 28.8
8 | CC(C)(C)C(=O)Nc1cncc(-c2ccc3[nH]nc(-c4nc5c(-c6ccc(Cl)s6)nccc5[nH]4)c3n2)c1 [Compound 1043, N-(5-(3-(4-(5-Chlorothiophen-2-yl)-1H-imidazo[4,5-c]pyridin-2-yl)-1H-pyrazolo[4,3-b]pyridin-5-yl)pyridin-3-yl)pivalamide] | > 10 | > 10 | 0 | 22
9 | Cc1cn(-c2nccc3[nH]c(-c4n[nH]c5ccc(-c6cncc(CN7CCCC7)c6)nc45)nc23)cn1 [Compound 210, 3-(4-(4-Methyl-1H-imidazol-1-yl)-1H-imidazo[4,5-c]pyridin-2-yl)-5-(5-(pyrrolidin-1-ylmethyl)pyridin-3-yl)-1H-pyrazolo [4,3-b]pyridine] | > 10 | > 10 | 24.5 | 2.9
10 | Clc1ccc(-c2nccc3[nH]c(-c4n[nH]c5ccc(-c6cncc(CN7CCCC7)c6)nc45)nc23)s1 [Compound 1049, 3-(4-(5-Chlorothiophen-2-yl)-1H-imidazo[4,5-c]pyridin-2-yl)-5-(5-(pyrrolidin-1-ylmethyl)pyridin-3-yl)-1H-pyrazolo [4,3-b]pyridine] | 1.19 | > 10 | 13.2 | 
11 | Fc1ccc(-c2nccc3[nH]c(-c4n[nH]c5ccc(-c6cncnc6)nc45)nc23)cc1 [Compound 55, 3-(4-(4-Fluorophenyl)-1H-imidazo[4,5-c]pyridin-2-yl)-5-(pyrimidin-5-yl)-1H-pyrazolo[4,3-b]pyridine] | 2.18 | > 10 | 27.3 | 
12 | c1cc(-c2ccc3[nH]nc(-c4nc5c(-c6ccncc6)nccc5[nH]4)c3n2)ccn1 [Compound 130, 5-(pyridin-4-yl)-3-(4-(pyridin-4-yl)-1H-imidazo[4,5-c]pyridin-2-yl)-1H-pyrazolo[4,3-b]pyridine] | > 10 | 0.203 |  | 15.3
13 | CC(C)Nc1cncc(-c2ccc3[nH]nc(-c4nc5c(-c6cccnc6)nccc5[nH]4)c3n2)c1 [Compound 96, N-Isopropyl-5-(3-(4-(pyridin-3-yl)-1H-imidazo[4,5-c]pyridin-2-yl)-1H-pyrazolo[4,3-b]pyridin-5-yl)pyridin-3-amine] | 1.25 | 2.75 |  | 
14 | O=C(Nc1cncc(-c2ccc3[nH]nc(-c4nc5c(-c6ccc(Cl)s6)nccc5[nH]4)c3n2)c1)C1CCC1 [Compound 1056, N-(5-(3-(4-(5-Chlorothiophen-2-yl)-1H-imidazo[4,5-c]pyridin-2-yl)-1H-pyrazolo[4,3-b]pyridin-5-yl)pyridin-3-yl)cyclobutanecarboxamide] | 2.24 | > 10 | 0 | 
15 | CC(C)(C)C(=O)Nc1cncc(-c2ccc3[nH]nc(-c4nc5c(-c6ccc(F)cc6)nccc5[nH]4)c3n2)c1 [Compound 36, N-(5-(3-(4-(4-Fluorophenyl)-1H-imidazo[4,5-c]pyridin-2-yl)-1H-pyrazolo [4,3-b]pyridin-5-yl)pyridin-3-yl)pivalamide] | 1.28 | > 10 | 0 | 
16 | CC(C)C(=O)Nc1cncc(-c2ccc3[nH]nc(-c4nc5c(-c6ccccc6F)nccc5[nH]4)c3n2)c1 [Compound 65, N-(5-(3-(4-(2-fluorophenyl)-1H-imidazo[4,5-c]pyridin-2-yl)-1H-pyrazolo [4,3-b]pyridin-5-yl)pyridin-3-yl)isobutyramide] | > 10 | > 10 | 40.4 | 4
17 | CN(C)c1cncc(-c2ccc3[nH]nc(-c4nc5c(N6CCCCC6)nccc5[nH]4)c3n2)c1 [Compound 175, N,N-Dimethyl-5-(3-(4-(piperidin-1-yl)-1H-imidazo[4,5-c]pyridin-2-yl)-1H-pyrazolo [4,3-b]pyridin-5-yl)pyridin-3-amine] | 2.4 | > 10 | 0 | 
18 | O=C(Nc1cncc(-c2ccc3[nH]nc(-c4nc5c(-c6ccccn6)nccc5[nH]4)c3n2)c1)c1ccccc1 [Compound 151, N-(5-(3-(4-(Pyridin-2-yl)-1H-imidazo[4,5-c]pyridin-2-yl)-1H-pyrazolo[4,3-b]pyridin-5-yl)pyridin-3-yl)benzamide] | > 10 | > 10 | 28.9 | 0
19 | CCCC(=O)Nc1cncc(-c2ccc3[nH]nc(-c4nc5c(-c6ccncc6)nccc5[nH]4)c3n2)c1 [Compound 129, N-(5-(3-(4-(Pyridin-4-yl)-1H-imidazo[4,5-c]pyridin-2-yl)-1H-pyrazolo[4,3-b]pyridin-5-yl)pyridin-3-yl)butyramide] | > 10 | > 10 | 12.5 | 0
20 | c1cc2[nH]c(-c3n[nH]c4ccc(C5CCNCC5)nc34)nc2c(-c2ccc3c(c2)OCO3)n1 [Compound 1108, 3-(4-(Benzo[d][1,3]dioxol-5-yl)-1H-imidazo[4,5-c]pyridin-2-yl)-5-(piperidin-4-yl)-1H-pyrazolo[4,3-b]pyridine] | > 10 | > 10 | 22.8 | 43.7
21 | CCNCc1cncc(-c2ccc3[nH]nc(-c4nc5c(-c6ccoc6)nccc5[nH]4)c3n2)c1 [Compound 314, N-((5-(3-(4-(Furan-3-yl)-1H-imidazo[4,5-c]pyridin-2-yl)-1H-pyrazolo[4,3-b]pyridin-5-yl)pyridin-3-yl)methyl)ethanamine] | > 10 | > 10 | 36 | 20.6
22 | c1cc2[nH]c(-c3n[nH]c4ccc(-c5cncc(OCCN6CCCC6)c5)nc34)nc2c(-c2ccoc2)n1 [Compound 690, 3-(4-(Furan-3-yl)-1H-imidazo[4,5-c]pyridin-2-yl)-5-(5-(2-(pyrrolidin-1-yl)ethoxy)pyridin-3-yl)-1H-pyrazolo[4,3-b]pyridine] | > 10 | 1.46 |  | 42.6
23 | CN1CCN(c2nccc3[nH]c(-c4n[nH]c5ccc(-c6cncnc6)nc45)nc23)CC1 [Compound 251, 3-(4-(4-Methylpiperazin-1-yl)-1H-imidazo[4,5-c]pyridin-2-yl)-5-(pyrimidin-5-yl)-1H-pyrazolo[4,3-b]pyridine] | > 10 | > 10 | 8.3 | 17.7
24 | Cc1ccc(-c2nccc3[nH]c(-c4n[nH]c5ccc(-c6cncc(OC7CCCCC7)c6)nc45)nc23)s1 [Compound 735, 5-(5-(Cyclohexyloxy)pyridin-3-yl)-3-(4-(5-methylthiophen-2-yl)-1H-imidazo[4,5-c]pyridin-2-yl)-1H-pyrazolo[4,3-b]pyridine] | 0.958 | > 10 | 18.8 | 
